Patent publication US8314089B2, “Substituted pyrazolamides and their use” (AiCuris GmbH & Co. KG, priority 2008, dated 2012)

Test system: HIV
Assay: HIV infection in cell culture (H9 cells, 2% FCS)
Assay type: cell-based
Details: Human immunodeficiency virus 1, HIV-infected H9 cells, suppression of 50% of virus-induced syncytia
Protocol: The HIV test is conducted according to the method of Pauswels et al. [cf. Journal of Virological Methods 1988, 20, 309-321], with modifications.
Primary human blood lymphocytes (PBLs) are enriched using Ficoll-Hypaque and stimulated, in RPMI 1640 medium, 20% fetal calf serum, with phytohemagglutinin (90 μg/ml) and interleukin-2 (40 U/ml). For the infection with the infectious HIV, the PBLs are pelletted and the cell pellet is subsequently suspended in 1 ml of a suitable diluted HIV virus adsorption solution and incubated for 1 hour at 37° C. (pellet infection). Unabsorbed virus is subsequently removed by centrifugation, and the infected cells are transferred to test plates (e.g. 96-well microtiter plates), which contain the test substances in a suitable dilution.
Alternatively, for example HIV-susceptible, permanent H9 cells (ATCC or NIAID, USA) are used instead of normal human blood lymphocytes for testing the antiviral effects of the compounds of the invention. Infected H9 cells are grown for test purposes in RPMI 1640 medium, 2% and/or 20% fetal calf serum.
The virus adsorption solution is centrifuged and the infected cell pellet is taken up in growth medium, so as to give 1×10^5 cells per ml. The cells infected in this way are pipetted at approx. 1×10^4 cells/well into the wells of 96-well microtiter plates (pellet infection). Alternatively the HIV is pipetted in separately only after preparation of the substance dilutions in the microtiter plates and after addition of the cells (supernatant infection).
The first vertical row of the microtiter plate contains only growth medium and cells that are not infected, but are otherwise treated exactly as described above (cell control). The second vertical row of the microtiter plate receives only HIV-infected cells (virus control) in growth medium. The other wells contain the compounds of the invention in various concentrations, starting from the wells of the 3rd vertical row of the microtiter plate, from which the test substances are diluted 2^10-fold in 2-fold steps.
Alternatively, supernatant infections are carried out (see above), in which the cells are sown in 96-well plates. The HIV virus is then added in a volume of 50 μl.
The test preparations are incubated at 37° C., until the formation of syncytia that is typical of HIV occurs in the untreated virus control (between day 3 and 6 after infection), which is then evaluated either microscopically or by p24 ELISA detection methods (Vironostika, BioMerieux, The Netherlands) or photometrically or fluorometrically using Alamar Blue indicator dye.
The IC50 values are determined as the concentration of the test substance at which 50% (approx. 20-100 syncytia) of the virus-induced syncytia are suppressed by the treatment with the compound of the invention. The cut-off values are set correspondingly in the ELISA test and in the photometric or fluorometric determination using Alamar Blue. In addition to determination of the antiviral effects, the treated cell cultures are also investigated microscopically with respect to cytotoxic, cytostatic or cytological changes and with respect to solubility. Active compounds that show cell-altering, cytotoxic findings in the concentration range of the activity are not assessed for their antiviral activity.

Row | Compound | IC50
1 | O=C(c1cc(-c2cccc(OC(F)(F)F)c2)n(-c2cccc(Cl)c2)n1)N1CC[C@@H](O)C1 [Example 10] | 0.05 µM
2 | O=C(c1cc(-c2cccc(OC(F)(F)F)c2)n(-c2cccc(Cl)c2)n1)N1CCOCC1 [Example 4] | 0.05 µM
3 | O=C(c1cc(-c2cccc(C(F)(F)F)c2)n(-c2cccc(Cl)c2)n1)N1CCC(O)C1 (centres unmarked) [Example 2] | 0.05 µM
4 | O=C(c1cc(-c2cccc(OC(F)(F)F)c2)n(-c2cccc(Cl)c2)n1)N1CCSC1 [Example 6] | 0.1 µM
5 | O=CN1CCN(C(=O)c2cc(-c3cccc(SC(F)(F)F)c3)n(-c3cccc(Cl)c3)n2)CC1 [Example 15, 4-{[1-(3-Chlorophenyl)-5-(3-trifluoromethylthiophenyl)-1H-pyrazol-3-yl]carbonyl}-piperazine-1-carbaldehyde] | 0.15 µM
6 | O=C(c1cc(-c2cccc(OC(F)(F)F)c2)n(-c2cccc(Cl)c2)n1)N1CCCOCC1 [Example 5] | 0.04 µM

More lines, now with the values ahead:

Row | IC50 | Compound
7 | 0.1 µM | O=C(c1cc(-c2cccc(C(F)(F)F)c2)n(-c2cccc(Cl)c2)n1)N1CCSC1 [Example 43]
8 | 0.1 µM | COc1ccc(-c2cc(C(=O)N3CCOCC3)nn2-c2cccc(Cl)c2)cc1OC [Example 35]
9 | 0.08 µM | O=C(c1cc(-c2ccccc2)n(-c2cccc(Cl)c2)n1)N1CCSC1 [Example 34]
10 | 0.04 µM | N#Cc1cccc(-c2cc(C(=O)N3CCOCC3)nn2-c2cccc(Cl)c2)c1 [Example 32]
11 | 0.05 µM | O=C(c1cc(-c2ccccc2)n(-c2cccc(Cl)c2)n1)N1CCOCC1 [Example 33]
